pKi: −log10 of the molar value. Like-named read-outs stand apart in the source and are kept apart here.
Columns and labels:
ZDF rats = assay: Zucker diabetic fatty (ZDF) rat model of type 2 diabetes; type: in vivo; settings: 10 mg/kg/day oral gavage, 7 days
From the text: The Zucker diabetic fatty (ZDF) rat is a commonly used animal model of type 2 diabetes with progressive β-cell loss resulting in extreme hyperglycemia. […] (Jourdan et al, Nature Med 2013, 19-(9):1132-1140).

[1] = tested on: CCl4-induced liver fibrosis; assay: CCl4-induced liver fibrosis model in mice; type: in vivo, mouse; settings: for CCl4-induced increase in immunoreactive iNOS: liver
Experimental: CCl4-induced liver fibrosis was generated by intraperitoneal injection of CCL4 (1 ml/kg, diluted 1:10 corn oil), twice weekly for 8 weeks. […] Data represent mean±SEM from 7-8 mice per group.*P<0.05 relative to control. ^#indicates significant treatment effect (P<0.05) relative to CCl4-treated vehicle group.
Fibrosis results from excessive extracellular matrix deposition by myofibroblasts accompanying chronic inflammation and wound healing, and is a key pathogenic process in many organs, including kidneys, lung, and liver.

DIO mice = assay: Mice with diet-induced obesity (DIO), 14 days oral treatment; type: in vivo, mouse
Experimental: Data represent mean±SEM from 5-6 mice per group.*(P<0.05), indicate significant difference from […] diet control. ^# indicates significant treatment effect (P<0.05) relative to vehicle-treated HFD group.
Data represent mean±SEM from 5-6 mice per group. *(P<0.05), indicate significant difference from (STD) diet control. ^# indicates significant treatment effect (P<0.05) relative to vehicle-treated HFD group. […] Glucose tolerance and insulin sensitivity were determined on the last 2 days of treatment, using i.p. glucose tolerance and insulin sensitivity tests.

[2] = In vivo metabolism in mouse, plasma LC-MS/MS; settings: 1 h after oral administration at 10 mg/kg in mice
CB1 [3] = biological target: T1, CB1 (Mus musculus, UniProt P47746)
T1 sequence (P47746 whole entry): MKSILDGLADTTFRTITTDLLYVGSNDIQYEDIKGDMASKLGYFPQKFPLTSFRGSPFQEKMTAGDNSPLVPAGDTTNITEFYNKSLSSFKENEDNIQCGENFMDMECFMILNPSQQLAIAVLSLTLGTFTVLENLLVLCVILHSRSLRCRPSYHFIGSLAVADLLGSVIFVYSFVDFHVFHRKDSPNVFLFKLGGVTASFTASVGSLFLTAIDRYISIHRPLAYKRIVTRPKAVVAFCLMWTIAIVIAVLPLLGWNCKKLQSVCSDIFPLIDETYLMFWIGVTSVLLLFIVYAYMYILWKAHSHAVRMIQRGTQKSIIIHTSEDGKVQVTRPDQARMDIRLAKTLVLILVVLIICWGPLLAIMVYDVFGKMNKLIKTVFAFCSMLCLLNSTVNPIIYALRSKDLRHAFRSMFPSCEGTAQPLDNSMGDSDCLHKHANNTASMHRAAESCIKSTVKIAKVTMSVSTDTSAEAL

[4] = Tissue levels (brain and plasma) after administration to mice; settings: 1 hour after administration of 10 mg/kg to mice
CB1 [5] = biological target: T1, CB1; assay: CB1 radioligand displacement assay in mouse brain membranes; type: binding; set-up: radioligand displacement assay in mouse brain membranes; from tissue; host or cells: mouse brain membranes
recombinant human AMPK = assay: Recombinant AMPK activity assay (Cyclex kit); type: biochemical
From the text: Guanides and biguanides, such as metformin, are effective as antidiabetic agents linked to their AMPK activating properties (Hardie et al., Chem Biol. 2012, […]; 1222-1236). Guanidine-containing analogs in certain embodiments were screened for activation of recombinant human AMPK, using an assay kit (Cyclex, Nagona, Japan), as illustrated in FIG. 8.
Activators of AMP-activated protein kinase (AMPK), such as guanidines of biguanides such as metformin are useful for the treatment of diabetes owing to their AMPK activating property (Hardie, et al., Chem & Biol 2012, 19(10); 1222-1236). Guanidine analogues of certain embodiments were screened for AMPK activation by using a recombinant AMPK activity assay.

liver fibrosis = settings: Teixeira-Clerc, Nature Med 2006; cited from earlier work
[6] = 10 mg/kg/day orally for 4 weeks
[7] = DIO mice, 10 mg/kg/day, 14 days

| pKi (CB1 [5]; Table 2, read-out: Ki CB1) | Compound | other results |
| --- | --- | --- |
|  | C/C(N)=N\C(=N/S(=O)(=O)c1ccc(Cl)cc1)N1CC(c2ccccc2)C(c2ccc(Cl)cc2)=N1 (racemic) [Compound 2, rac-N-(1-aminoethylidene)-3-(4-chlorophenyl)-N-((4-chlorophenyl)sulfonyl)-4-phenyl-4,5-dihydro-1H-pyrazole-1-carboximidamide] | plasma c-peptide (ZDF rats): prevented; plasma insulin (ZDF rats): prevented; blood glucose (ZDF rats; 10 mg/kg/day): prevented the progressive increase; liver fibrosis / collagen deposition by Sirius Red and Masson's trichrome staining [1, 6]: more effective than rimonabant; α-SMA, Procollagen-1 and Fibronectin-1 mRNA [1, 6]: more effective than rimonabant; CCl4-induced increase in immunoreactive iNOS [1, 6]: attenuated; HFD-induced glucose intolerance (DIO mice; [7]): abrogated; body weight (DIO mice; [7]): reduced; food intake (DIO mice; [7]): reduced; hepatic TG (DIO mice; [7]): reduced; hyperinsulinemia (DIO mice; [7]): abrogated; hyperleptinemia (DIO mice; [7]): reduced; insulin resistance (DIO mice; [7]): abrogated; insulin resistance (insulin sensitivity test) (DIO mice; DIO mice, last 2 days of treatment): nearly completely normalized; glucose intolerance (i.p. glucose tolerance test) (DIO mice; DIO mice, last 2 days of treatment, i.p. glucose load 1.5 g/kg): nearly completely normalized; In vivo Comments (DIO mice; mouse, in vivo): -anti- diabetic -anti- obesity; in vivo metabolism, metabolite generation in plasma [2]: underwent in vivo metabolism to liberate the amidine moiety and a metabolite; Functional GTPγS binding CB1 Emax (CB1 [3]): -20 % basal |
|  | CC(=N)N/C(=N\S(=O)(=O)c1ccc(Cl)cc1)N1C[C@H](c2ccccc2)C(c2ccc(Cl)cc2)=N1 [Compound 2E1] | liver fibrosis / collagen deposition by Sirius Red and Masson's trichrome staining [1, 6]: more effective than rimonabant; CCl4-induced increase in immunoreactive iNOS [1, 6]: dramatically attenuated; anti-fibrotic efficacy in liver fibrosis (overall) ([1]; versus rimonabant): higher anti-fibrotic efficacy than rimonabant; plasma levels, oral versus i.p. administration [4]: comparable after oral or i.p. administration |
| 6.51 | CN1CCN(/C(N)=N/C(=N/S(=O)(=O)c2ccc(Cl)cc2)N2CC(c3ccccc3)C(c3ccc(Cl)cc3)=N2)CC1 (centres unmarked) [Compound 54] |  |
| 6.34 | N/C(=N\C(=N\S(=O)(=O)c1ccc(Cl)cc1)N1CC(c2ccccc2)C(c2ccc(Cl)cc2)=N1)NC1CCCC1 (centres unmarked) [Compound 56] |  |
| 6.38 | N/C(=N\C(=N\S(=O)(=O)c1ccc(Cl)cc1)N1CC(c2ccccc2)C(c2ccc(Cl)cc2)=N1)NC1CCCCC1 (centres unmarked) [Compound 57] |  |
| 6.23 | N/C(=N\C(=N\S(=O)(=O)c1ccc(Cl)cc1)N1CC(c2ccccc2)C(c2ccc(Cl)cc2)=N1)NCCc1c[nH]c2ccccc12 (centres unmarked) [Compound 58] |  |
|  | CC(C)(C)OC(=O)N1CCN(/C(N)=N/C(=N/S(=O)(=O)c2ccc(Cl)cc2)N2CC(c3ccccc3)C(c3ccc(Cl)cc3)=N2)CC1 (centres unmarked) [Compound 59] | pKi (CB1 [5]): 6.41 |
| 6.35 | COC(CN/C(N)=N/C(=N/S(=O)(=O)c1ccc(Cl)cc1)N1CC(c2ccccc2)C(c2ccc(Cl)cc2)=N1)OC (centres unmarked) [Compound 60] |  |
| 6.69 | CN(CCC#N)/C(N)=N/C(=N/S(=O)(=O)c1ccc(Cl)cc1)N1CC(c2ccccc2)C(c2ccc(Cl)cc2)=N1 (centres unmarked) [Compound 61] |  |
| < 6.00 | NC(=NC(=NS(=O)(=O)c1ccc(Cl)cc1)N1CC(c2ccccc2)C(c2ccc(Cl)cc2)=N1)NCC12CC3CC(CC(C3)C1)C2 (centres unmarked) [Compound 62] |  |
| 7.96 | N/C(=N\C(=N\S(=O)(=O)c1ccc(Cl)cc1)N1CC(c2ccccc2)C(c2ccc(Cl)cc2)=N1)n1cccn1 (centres unmarked) [Compound 63] |  |
| < 6.00 | NC(=NC(=NS(=O)(=O)c1ccc(Cl)cc1)N1CC(c2ccccc2)C(c2ccc(Cl)cc2)=N1)NC12CC3CC(CC(C3)C1)C2 (centres unmarked) [Compound 64] |  |
| 8.05 | CC(=O)N/C(N)=N/C(=N/S(=O)(=O)c1ccc(Cl)cc1)N1CC(c2ccccc2)C(c2ccc(Cl)cc2)=N1 (centres unmarked) [Compound 65] |  |
| 6.95 | CC(C)(N/C(N)=N/C(=N/S(=O)(=O)c1ccc(Cl)cc1)N1CC(c2ccccc2)C(c2ccc(Cl)cc2)=N1)c1ccccc1 (centres unmarked) [Compound 66] |  |
| 6.35 | COC(CN(C)C(N)=NC(=NS(=O)(=O)c1ccc(Cl)cc1)N1CC(c2ccccc2)C(c2ccc(Cl)cc2)=N1)OC (centres unmarked) [Compound 68] |  |
| 8.00 | Cc1cc(C)n(C(N)=NC(=NS(=O)(=O)c2ccc(Cl)cc2)N2CC(c3ccccc3)C(c3ccc(Cl)cc3)=N2)n1 (centres unmarked) [Compound 69] |  |
| 8.05 | NC(=NC(=NS(=O)(=O)c1ccc(C(F)(F)F)cc1)N1CC(c2ccccc2)C(c2ccc(Cl)cc2)=N1)c1ccc(F)cc1 (centres unmarked) [Compound 79] |  |

| pKi (CB1 [5]; Table 2, read-out: Ki CB1) | Compound | other results |
| --- | --- | --- |
| 8.18 | NC(=NC(=NS(=O)(=O)c1ccc(C(F)(F)F)cc1)N1CC(c2ccccc2)C(c2ccc(Cl)cc2)=N1)c1ccc(F)cc1F (centres unmarked) [Compound 80] |  |
| 8.47 | CC(C)(C)C(N)=NC(=NS(=O)(=O)c1ccc(C(F)(F)F)cc1)N1CC(c2ccccc2)C(c2ccc(Cl)cc2)=N1 (centres unmarked) [Compound 81] |  |
| 7.80 | NC(=NC(=NS(=O)(=O)c1ccc(C(F)(F)F)cc1)N1CC(c2ccccc2)C(c2ccc(Cl)cc2)=N1)c1ccc(Cl)cc1 (centres unmarked) [Compound 82] |  |
| 7.55 | NC(=NC(=NS(=O)(=O)c1ccc(C(F)(F)F)cc1)N1CC(c2ccccc2)C(c2ccc(Cl)cc2)=N1)n1cccn1 (centres unmarked) [Compound 84] |  |
| 8.82 | Cc1cc(C)n(C(N)=NC(=NS(=O)(=O)c2ccc(C(F)(F)F)cc2)N2CC(c3ccccc3)C(c3ccc(Cl)cc3)=N2)n1 (centres unmarked) [Compound 85] |  |
| 7.96 | NC(=NC(=NS(=O)(=O)c1ccc(I)cc1)N1CC(c2ccccc2)C(c2ccc(Cl)cc2)=N1)c1ccc(Cl)cc1 (centres unmarked) [Compound 86] |  |
| 7.92 | NC(=NC(=NS(=O)(=O)c1ccc(I)cc1)N1CC(c2ccccc2)C(c2ccc(Cl)cc2)=N1)c1ccc(F)cc1 (centres unmarked) [Compound 87] |  |
| 8.32 | NC(=NC(=NS(=O)(=O)c1ccc(I)cc1)N1CC(c2ccccc2)C(c2ccc(Cl)cc2)=N1)c1ccc(F)cc1F (centres unmarked) [Compound 88] |  |
| 8.39 | CC(C)(C)C(N)=NC(=NS(=O)(=O)c1ccc(I)cc1)N1CC(c2ccccc2)C(c2ccc(Cl)cc2)=N1 (centres unmarked) [Compound 89] |  |
| 8.74 | CC(=O)N/C(N)=N/C(=N/S(=O)(=O)c1ccc(OC(F)(F)F)cc1)N1CC(c2ccccc2)C(c2ccc(Cl)cc2)=N1 (centres unmarked) [Compound 90] |  |
| 8.89 | CC(=O)N/C(N)=N/C(=N/S(=O)(=O)c1ccc(C(C)(C)C)cc1)N1CC(c2ccccc2)C(c2ccc(Cl)cc2)=N1 (centres unmarked) [Compound 91] |  |
| 6.86 | CC(N)=NC(=NS(=O)(=O)c1ccc(OC(F)(F)F)cc1)N1CC(c2ccccc2)C(c2ccc(Cl)cc2)=N1 (centres unmarked) [Compound 97] |  |
| 7.32 | CC(N)=NC(=NS(=O)(=O)c1ccc(C(C)(C)C)cc1)N1CC(c2ccccc2)C(c2ccc(Cl)cc2)=N1 (centres unmarked) [Compound 98] |  |
| 7.80 | CC(N)=NC(=NS(=O)(=O)c1ccc(C#N)cc1)N1CC(c2ccccc2)C(c2ccc(Cl)cc2)=N1 (centres unmarked) [Compound 100] |  |
| 8.26 | NC(=NC(=NS(=O)(=O)c1ccc(C(F)(F)F)cc1)N1CC(c2ccccc2)C(c2ccc(Cl)cc2)=N1)NC(=O)/C=C/c1ccccc1 (centres unmarked) [Compound 101] |  |
|  | Cc1c(C(=O)NN2CCCCC2)nn(-c2ccc(Cl)cc2Cl)c1-c1ccc(Cl)cc1 [rimonabant] | effect on AMPK activity (recombinant human AMPK): no effect; effect on AMPK activity (recombinant human AMPK; 1 μM): no effect; anti-fibrotic effect (liver fibrosis): anti-fibrotic effect |

| Compound | pKi (CB1 [5]; Table 2, read-out: Ki CB1) | other results |
| --- | --- | --- |
| CN(CC(C)(C)C)C(N)=NC(=NS(=O)(=O)c1ccc(Cl)cc1)N1CC(c2ccccc2)C(c2ccc(Cl)cc2)=N1 (centres unmarked) [Compound 67] | 5.62 |  |
